Laboratory results taken from patent US8362012B2, “Benzoxazine benzimidazole derivative, a pharmaceutical composition comprising the same, and a use thereof” (Daewoong Pharmaceutical Co., Ltd., priority 2008, dated 2013).
pIC50: −log10 of the molar value.

Assays:
[1] = biological target: T1, human vanilloid-1 (hVR-1) in hVR-1-HEK293 cell line (Homo sapiens, UniProt Q8NER1); experiment: Inhibitory effect on calcium influx via a vanilloid receptor (capsaicin-stimulated, Fluo-3/AM); format: cell-based; details: hVR-1-HEK293 cells, 1 μM of capsaicin, compounds 0.015˜2000 nM; read-out: I.A. (inhibitory activity), IC50 on intracellular calcium influx
T1 construct: expressed in transfected cells; host or cells: HEK293 Tet-on strain, doxycycline-induced
T1 sequence (Q8NER1 whole entry): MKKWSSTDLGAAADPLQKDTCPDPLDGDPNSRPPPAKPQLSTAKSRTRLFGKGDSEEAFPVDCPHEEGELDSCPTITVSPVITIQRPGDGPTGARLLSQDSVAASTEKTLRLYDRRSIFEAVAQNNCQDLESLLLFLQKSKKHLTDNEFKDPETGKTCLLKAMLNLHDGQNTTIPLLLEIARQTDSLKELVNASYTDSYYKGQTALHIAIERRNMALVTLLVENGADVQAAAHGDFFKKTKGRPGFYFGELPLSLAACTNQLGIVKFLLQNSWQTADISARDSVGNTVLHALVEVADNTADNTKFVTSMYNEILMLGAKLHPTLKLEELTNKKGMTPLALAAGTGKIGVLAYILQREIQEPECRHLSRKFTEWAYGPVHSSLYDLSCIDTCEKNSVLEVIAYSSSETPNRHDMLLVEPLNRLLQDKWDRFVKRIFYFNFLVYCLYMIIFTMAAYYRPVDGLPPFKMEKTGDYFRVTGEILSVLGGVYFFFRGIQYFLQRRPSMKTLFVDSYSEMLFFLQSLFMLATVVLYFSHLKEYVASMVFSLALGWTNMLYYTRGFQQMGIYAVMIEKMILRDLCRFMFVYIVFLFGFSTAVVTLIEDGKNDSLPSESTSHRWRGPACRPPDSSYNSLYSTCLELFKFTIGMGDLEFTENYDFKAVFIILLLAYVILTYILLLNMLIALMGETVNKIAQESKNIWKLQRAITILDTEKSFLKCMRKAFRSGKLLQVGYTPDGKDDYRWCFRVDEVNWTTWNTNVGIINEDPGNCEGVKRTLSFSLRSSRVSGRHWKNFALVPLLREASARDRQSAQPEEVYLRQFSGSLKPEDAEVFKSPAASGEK
Method in brief: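 Doxycycline-induced (1 μg/mL, 2 days) hVR-1-HEK293 cells loaded with Fluo-3/AM for 90 min at 37° C, then stimulated with 1 μM capsaicin. Calcium influx expressed as background-corrected fluorescence relative to positive control, analysed by Hill equation and graded by activity criteria.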

ICR male mice = experiment: Phenyl-p-quinone (PBQ)-induced writhing experiment using mice; format: in vivo; details: orally administered, PBQ (0.02%) intraperitoneally after 1 hour, writhing counted for 10 min
Procedure: In order to evaluate the effect on pain of the compounds prepared in the Examples, behaviors such as twisting or writhing of body resulted from pain were verified by the phenyl-p-quinone (PBQ)-induced writhing experiment using mice. 5 week-old ICR male mice were used as experimental animals and PBQ (0.02%), as a chemical stimulator. The suspensions of 20 mg of the compounds of the present invention and an excipient such as Na—CMC (sodium carboxymethyl cellulose) in 10 mL of saline were used as test compounds. The test compounds were orally administered to the mice and after 1 hour, PBQ was intraperitoneally administrated in an amount of 10 mL per kg of body weight. Also, as a control group, equivalent amounts of BCTC were administered. The writhing number of each mouse was measured for 10 min starting from 5 min after the administration, and the analgesic effect was verified by counting the reduced number compared to the control group administered with only excipient and calculating the % inhibitory rate according to the following Formula 2. % inhibition rate=(writhing # of control group−writhing # of test group)/writhing # of control group×100 [Formula 2]

pIC50 [1] | SMILES | I.A. (inhibitory activity), % inhibition rate of writhing (ICR male mice)
> 7.70 | CCc1ccc(N2c3cccc(-c4nc5ccc(C#N)cc5[nH]4)c3OC[C@@H]2CO)nc1 [Example 87, 2-[(S)-4-(5-ethyl-pyridin-2-yl)-3-hydroxymethyl-3,4-dihydro-2H-benzo[1,4]oxazin-8-yl]-3H-benzimidazol-5-carbonitrile] | +++ (51-80%)
> 7.70 | COC[C@H]1COc2c(-c3nc4c(Br)cc(C(F)(F)F)cc4[nH]3)cccc2N1c1ccc(C)cn1 [Example 93, (S)-8-(4-bromo-6-trifluoromethyl-1H-benzimidazol-2-yl)-3-methoxymethyl-4-(5-methyl-pyridin-2-yl)-3,4-dihydro-2H-benzo[1,4]oxazine] | ++ (20˜50%)
> 7.70 | COC[C@H]1COc2c(-c3nc4ccc(Br)cc4[nH]3)cccc2N1c1ccc(C)cn1 [Example 89, (S)-8-(6-bromo-1H-benzimidazol-2-yl)-3-methoxymethyl-4-(5-methyl-pyridin-2-yl)-3,4-dihydro-2H-benzo[1,4]oxazine] | +++ (51-80%)
7.00 to 7.70 | COc1ccc2nc(-c3cccc4c3OC[C@H](CO)N4c3ccc(C)cn3)[nH]c2c1 [Example 48, [(S)-8-(6-methoxy-1H-benzimidazol-2-yl)-4-(5-methyl-pyridin-2-yl)-3,4-dihydro-2H-benzo[1,4]oxazin-3-yl]-methanol] | ++ (20˜50%)
> 7.70 | CCc1ccc(N2c3cccc(-c4nc5c(Cl)cc(C(F)(F)F)cc5[nH]4)c3OC[C@@H]2CO)nc1 [Example 80, [(S)-8-(4-chloro-6-trifluoromethyl-1H-benzimidazol-2-yl)-4-(5-ethyl-pyridin-2-yl)-3,4-dihydro-2H-benzo[1,4]oxazin-3-yl]-methanol] | +++ (51-80%)
7.00 to 7.70 | Cc1ccc(N2CCOc3c(-c4nc5c(F)cc(Br)cc5[nH]4)cccc32)nc1 [Example 33, 8-(6-bromo-4-fluoro-1H-benzimidazol-2-yl)-4-(5-methyl-pyridin-2-yl)-3,4-dihydro-2H-benzo[1,4]oxazine] | +++ (51-80%)
> 7.70 | Cc1ccc(N2c3cccc(-c4nc5c(Cl)cc(C(F)(F)F)cc5[nH]4)c3OC[C@@H]2CO)nc1 [Example 39, [(S)-8-(4-chloro-6-trifluoromethyl-1H-benzimidazol-2-yl)-4-(5-methyl-pyridin-2-yl)-3,4-dihydro-2H-benzo[1,4]oxazin-3-yl]-methanol] | +++ (51-80%)
> 7.70 | C=Cc1ccc(N2c3cccc(-c4nc5ccc(Br)cc5[nH]4)c3OC[C@@H]2CO)nc1 [Example 60, [(S)-8-(6-bromo-1H-benzimidazol-2-yl)-4-(5-vinyl-pyridin-2-yl)-3,4-dihydro-2H-benzo[1,4]oxazin-3-yl]-methanol] | +++ (51-80%)
> 7.70 | COC[C@H]1COc2c(-c3nc4c(C(F)(F)F)cc(C(F)(F)F)cc4[nH]3)cccc2N1c1ccc(C)cn1 [Example 96, (S)-8-(4,6-bis-trifluoromethyl-1H-benzimidazol-2-yl)-3-methoxymethyl-4-(5-methyl-pyridin-2-yl)-3,4-dihydro-2H-benzo[1,4]oxazine] | ++++ (>80%)
> 7.70 | COC[C@H]1COc2c(-c3nc4ccc(C(F)(F)F)cc4[nH]3)cccc2N1c1ccc(C)cn1 [Example 90, (S)-3-methoxymethyl-4-(5-methyl-pyridin-2-yl)-8-(6-trifluoromethyl-1H-benzimidazol-2-yl)-3,4-dihydro-2H-benzo[1,4]oxazine] | +++ (51-80%)
> 7.70 | Cc1ccc(N2c3cccc(-c4nc5c(Br)cc(C(F)(F)F)cc5[nH]4)c3OC[C@@H]2CO)nc1 [Example 41, [(S)-8-(4-bromo-6-trifluoromethyl-1H-benzimidazol-2-yl)-4-(5-methyl-pyridin-2-yl)-3,4-dihydro-2H-benzo[1,4]oxazin-3-yl]-methanol] | ++ (20˜50%)
> 7.70 | Cc1ccc(N2c3cccc(-c4nc5ccc(Br)cc5[nH]4)c3OC[C@@H]2CO)nc1 [Example 36, [(S)-8-(6-bromo-1H-benzimidazol-2-yl)-4-(5-methyl-pyridin-2-yl)-3,4-dihydro-2H-benzo[1,4]oxazin-3-yl]-methanol] | +++ (51-80%)
> 7.70 | COC[C@H]1COc2c(-c3nc4c(Cl)cc(C(F)(F)F)cc4[nH]3)cccc2N1c1ccc(C)cn1 [Example 92, (S)-8-(4-chloro-6-trifluoromethyl-1H-benzimidazol-2-yl)-3-methoxymethyl-4-(5-methyl-pyridin-2-yl)-3,4-dihydro-2H-benzo[1,4]oxazine] | ++ (20˜50%)
> 7.70 | CCc1ccc(N2c3cccc(-c4nc5c(F)cc(F)cc5[nH]4)c3OC[C@@H]2CO)nc1 [Example 86, [(S)-8-(4,6-difluoro-1H-benzimidazol-2-yl)-4-(5-ethyl-pyridin-2-yl)-3,4-dihydro-2H-benzo[1,4]oxazin-3-yl]-methanol] | +++ (51-80%)
> 7.70 | Cc1ccc(N2c3cccc(-c4nc5c(C)cccc5[nH]4)c3OC[C@@H]2CO)nc1 [Example 50, [(S)-8-(4-methyl-1H-benzimidazol-2-yl)-4-(5-methyl-pyridine-2-yl)-3,4-dihydro-2H-benzo[1,4]oxazin-3-yl]-methanol] | + (<20%)
7.00 to 7.70 | COC[C@H]1COc2c(-c3nc4ccc(C)c(C)c4[nH]3)cccc2N1c1ccc(C)cn1 [Example 100, (S)-8-(6,7-dimethyl-1H-benzimidazol-2-yl)-3-methoxymethyl-4-(5-methyl-pyridin-2-yl)-3,4-dihydro-2H-benzo[1,4]oxazine] | ++ (20˜50%)
7.00 to 7.70 | Cc1ccc(N2CCOc3c(-c4nc5c(Br)cc(C(F)(F)F)cc5[nH]4)cccc32)nc1 [Example 31, 8-(4-bromo-6-trifluoromethyl-1H-benzimidazol-2-yl)-4-(5-methyl-pyridin-2-yl)-3,4-dihydro-2H-benzo[1,4]oxazine] | ++ (20˜50%)
> 7.70 | Cc1ccc(N2c3cccc(-c4nc5ccc(F)cc5[nH]4)c3OC[C@@H]2CO)nc1 [Example 49, [(S)-8-(6-fluoro-1H-benzimidazol-2-yl)-4-(5-methyl-pyridin-2-yl)-3,4-dihydro-2H-benzo[1,4]oxazin-3-yl]-methanol] | +++ (51-80%)
7.00 to 7.70 | Cc1ccc(N2c3cccc(-c4nc5c(Br)cc(Br)cc5[nH]4)c3OC[C@@H]2CO)nc1 [Example 42, [(S)-8-(4,6-dibromo-1H-benzimidazol-2-yl)-4-(5-methyl-pyridin-2-yl)-3,4-dihydro-2H-benzo[1,4]oxazin-3-yl]-methanol] | +++ (51-80%)
> 7.70 | Cc1ccc(N2c3cccc(-c4nc5cc(F)c(F)cc5[nH]4)c3OC[C@@H]2CO)nc1 [Example 44, [(S)-8-(5,6-difluoro-1H-benzimidazol-2-yl)-4-(5-methyl-pyridin-2-yl)-3,4-dihydro-2H-benzo[1,4]oxazin-3-yl]-methanol] | ++++ (>80%)
7.00 to 7.70 | FC(F)(F)c1ccc2nc(-c3cccc4c3OCCN4c3ccc(Br)cn3)[nH]c2c1 [Example 19, 4-(5-bromo-pyridin-2-yl)-8-(6-trifluoromethyl-1H-benzimidazol-2-yl)-3,4-dihydro-2H-benzo[1,4]oxazine] | ++ (20˜50%)
> 7.70 | COC[C@H]1COc2c(-c3nc4c(F)cc(Br)cc4[nH]3)cccc2N1c1ccc(C)cn1 [Example 94, (S)-8-(6-bromo-4-fluoro-1H-benzimidazol-2-yl)-3-methoxymethyl-4-(5-methyl-pyridin-2-yl)-3,4-dihydro-2H-benzo[1,4]oxazine] | +++ (51-80%)
7.00 to 7.70 | COC[C@H]1COc2c(-c3nc4ccc(F)cc4[nH]3)cccc2N1c1ccc(C)cn1 [Example 98, (S)-8-(6-fluoro-1H-benzimidazol-2-yl)-3-methoxymethyl-4-(5-methyl-pyridin-2-yl)-3,4-dihydro-2H-benzo[1,4]oxazine] | ++ (20˜50%)

SMILES | pIC50 [1] | I.A. (inhibitory activity), % inhibition rate of writhing (ICR male mice)
Cc1ccc(N2c3cccc(-c4nc5ccc(Cl)cc5[nH]4)c3OC[C@@H]2CO)nc1 [Example 37, [(S)-8-(6-chloro-1H-benzimidazol-2-yl)-4-(5-methyl-pyridin-2-yl)-3,4-dihydro-2H-benzo[1,4]oxazin-3-yl]-methanol] | 7.00 to 7.70 | +++ (51-80%)
